Patent US10414756B2, “2-(2,4,5-substituted aniline) pyrimidine derivative, pharmaceutical composition and use thereof” (Nanjing Diansu Biological Technology Co., Ltd., priority 2014, dated 2019)
Where a name gives a salt, the structure may show the parent alone.

Experiments:
[1] = Test 4: stability of compounds in human liver microsomes; assay type: in vitro ADME; settings: for Remaining Percentage (%) 0 h / Remaining Percentage (%) 8 h / Remaining Percentage (%) 16 h / Remaining Percentage (%) 24 h / Remaining Percentage (%) 32 h / Remaining Percentage (%) 48 h: 0.5 mg/mL liver microsomal protein, 1 mM NADPH, 37° C., N=1; for Half-time period: human liver microsomes
Description: Test 4: Evaluation of Stability of Compounds in Human Liver Microsomes
Assay system: the metabolic stability of the compounds in the present invention were determined by employing a mixture of male and female liver microsomes (Jiangyin Qi Biotechnology Co., Ltd.) and 1 mM NADPH. Samples were analyzed by a mass spectrometer. HRMS was used to determine the peak area response ratio (corresponding to the peak area of the compound to be tested or control compound being divided by the peak area of the internal standard) without running the standard curve. In order to detect all possible metabolites, HRMS scan were performed within an appropriate m/z range.
Determination condition: the assay was performed with one time incubation (N=1). The compounds to be tested were incubated at 37° C. in a PBS buffer containing 0.5 mg/mL liver microsomal protein.
Determination quality control: compare the testosterone of control compound in parallel to determine the enzyme […] of (liver) microsomes. After the last time point, […]
Aqueous phase (A): 90% water, 10% buffer;
Organic phase (B): 90% acetonitrile, 10% buffer;
Autosampler: injection volume 10 μL

NCI-H1975 = test: Test 5: effect in nude mice implanted with NCI-H1975; assay type: in vivo
Description: Test 5: Effect Assess in Nude Mice Implanted with NCI-H1975
To nude mice implanted with NCI-H1975, was administered 3.6 μgig (compound/nude mice weight) once a day in one group, and 7.2 μgig once a day in another group, and the tumor size was observed after continuous administration for 10 days.

[2] = Effect Embodiment 2: rat pharmacokinetics after intragastric administration; assay type: in vivo, SD rats; settings: rats, 25 mg/kg intragastric, n=6, compared with AZD9291
Source text: 2.1. Grouping of Experimental Animals:
24 SD rats were half male and half female, randomly divided into 4 groups, 6 rats in each group, half male and half female
1-3 male, NO. […] 7-9 male, NO. 10-12 female
2.2. Experimental Reagents and Administration Modes
Intragastric Administration:
2. grouping and weighing rats;
4. the blood samples were centrifuged, supernatant was extracted, treated, and analyzed.

[3] = Dose 3.6 μg/g once a day for 10 days
[4] = Dose 7.2 μg/g once a day for 10 days

Structure (SMILES) | Remaining Percentage (%) 0 h [1] [%] | Remaining Percentage (%) 8 h [1] [%] | Remaining Percentage (%) 16 h [1] [%] | Remaining Percentage (%) 24 h [1] [%] | Remaining Percentage (%) 32 h [1] [%] | Remaining Percentage (%) 48 h [1] [%] | Half-time period [1] [h] | tumor size 11th d (NCI-H1975; [3]) [mm] | tumor size 0 d (NCI-H1975; Dose 3.6 μg/g once a day) [mm] | tumor size 11th d (NCI-H1975; [4]) [mm] | tumor size 0 d (NCI-H1975; Dose 7.2 μg/g once a day) [mm] | inhibitory effect on tumor growth (NCI-H1975; low dose (3.6 μg/g)) | pharmacokinetics (mean drug concentration-time curve, FIG. 2) [2]
C=CC(=O)Nc1cc(Nc2nccc(-c3cn(C)c4ccccc34)n2)c(OC)cc1N(C)CCN(C)C.CS(=O)(=O)O [AZD9291, reference compound] | 100 | 82 | 61 | 48 | 34 | 14 | 24 | 13 | 13 | 8 | 12 | very low inhibitory effect on tumor growth | –
[2H]C([2H])([2H])N(C)CCN(C)c1cc(OC)c(Nc2nccc(-c3cn(C)c4ccccc34)n2)cc1NC(=O)C=C [Embodiment 1B, N-(2-{2-[methyl(D3-methyl)amino]ethyl-methylamino}-4-methoxy-5-{[4-(1-methylindol-3-yl)pyrimidin-2-yl]amino}phenyl)-2-acrylamide mesylate] | 100 | 93 | 86 | 77 | 70 | 67 | >48 | 6 | 12 | 5 | 13 | – | –
[2H]C([2H])([2H])N(CCN(C)c1cc(OC)c(Nc2nccc(-c3cn(C)c4ccccc34)n2)cc1NC(=O)C=C)C([2H])([2H])[2H] [Embodiment 2B, N-(2-{2-di(D3-methyl)aminoethyl-methylamino}-4-methoxy-5-{[4-(1-methylindol-3-yl)pyrimidin-2-yl]amino}phenyl)-2-acrylamide mesylate] | 100 | 97 | 90 | 82 | 75 | 81 | >48 | 5 | 12 | 4 | 12 | – | –
[2H]C([2H])([2H])n1cc(-c2ccnc(Nc3cc(NC(=O)C=C)c(N(C)CCN(C)C)cc3OC)n2)c2ccccc21 [Embodiment 3B, N-(2-{2-dimethylaminoethyl-methylamino}-4-methoxy-5-{[4-(1-D3-methyl)indol-3-yl)pyrimidin-2-yl]amino}phenyl)-2-acrylamide mesylate] | 100 | 90 | 82 | 73 | 64 | 55 | >48 | 9 | 14 | 7 | 13 | – | better pharmacokinetics
[2H]C([2H])([2H])Oc1cc(N(C)CCN(C)C)c(NC(=O)C=C)cc1Nc1nccc(-c2cn(C)c3ccccc23)n1 [Embodiment 4B, N-(2-{2-dimethylaminoethyl-methylamino}-4-(D3-methoxy)-5-{[4-(1-methylindol-3-yl)pyrimidin-2-yl]amino}phenyl)-2-acrylamide mesylate] | 100 | 89 | 81 | 72 | 63 | 51 | >48 | 8 | 13 | 6 | 11 | – | –
[2H]C([2H])([2H])N(CCN(C)C)c1cc(OC)c(Nc2nccc(-c3cn(C)c4ccccc34)n2)cc1NC(=O)C=C [Embodiment 5B, N-(2-{2-dimethylaminoethyl-(D3-methyl)amino}-4-methoxy-5-{[4-(1-methylindol-3-yl)pyrimidin-2-yl]amino}phenyl)-2-acrylamide mesylate] | 100 | 91 | 84 | 75 | 69 | 66 | >48 | 10 | 11 | 8 | 14 | – | –
[2H]C([2H])([2H])N(CCN(C)c1cc(OC)c(Nc2nccc(-c3cn(C([2H])([2H])[2H])c4ccccc34)n2)cc1NC(=O)C=C)C([2H])([2H])[2H] [Embodiment 6B, N-(2-{2-di(D3-methyl)aminoethyl-methylamino}-4-methoxy-5-{[4-(1-(D3-methyl)indol-3-yl)pyrimidin-2-yl]amino}phenyl)-2-acrylamide mesylate] | 100 | 92 | 80 | 76 | 65 | 58 | >48 | – | – | – | – | – | –
